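The compound was tested at five concentrations on cells cultured in 96-well plates, with a 48-hour exposure period. At the GI50, growth is halved.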 Activity calls are given as the source filed them. Cut-off read from the data, not from the text of the source: active = GI50 up to about 1.1 µM and inactive = higher.
Legend:
Assay in all cases: NCI tumour cell line growth inhibition, 48 h
IGROV-1 = test system: IGROV-1
KM12 = test system: KM12
SNB-19 = test system: SNB-19
SK-OV-3 = test system: SK-OV-3
OVCAR-4 = test system: OVCAR-4
NCI-H522 = test system: NCI-H522
HCT-15 = test system: HCT-15
NCI-H23 = test system: NCI-H23
HOP-62 = test system: HOP-62
U-251 = test system: U-251
SNB-75 = test system: SNB-75
SR = test system: SR
UACC-257 = test system: UACC-257
UO-31 = test system: UO-31
HOP-92 = test system: HOP-92
HCC 2998 = test system: HCC 2998
UACC-62 = test system: UACC-62
MDA-MB-231 = test system: MDA-MB-231
RPMI-8226 = test system: RPMI-8226
SF-295 = test system: SF-295
OVCAR-5 = test system: OVCAR-5
MDA-N = test system: MDA-N
OVCAR-8 = test system: OVCAR-8
DU-145 = test system: DU-145
COLO 205 = test system: COLO 205
EKVX = test system: EKVX
SW-620 = test system: SW-620
LOX IMVI = test system: LOX IMVI
CAKI-1 = test system: CAKI-1
MOLT-4 = test system: MOLT-4
A549 = test system: A549
ACHN = test system: ACHN
CCRF-CEM = test system: CCRF-CEM
M14 = test system: M14
SF-539 = test system: SF-539
TK-10 = test system: TK-10
NCI-H226 = test system: NCI-H226
SK-MEL-2 = test system: SK-MEL-2
MCF7 = test system: MCF7
SK-MEL-28 = test system: SK-MEL-28
NCI/ADR-RES = test system: NCI/ADR-RES
Hs-578T = test system: Hs-578T
HL-60 = test system: HL-60
SN12C = test system: SN12C
MDA-MB-435 = test system: MDA-MB-435
NCI-H460 = test system: NCI-H460
K562 = test system: K562
BT-549 = test system: BT-549
HCT-116 = test system: HCT-116
PC-3 = test system: PC-3
SK-MEL-5 = test system: SK-MEL-5
HT-29 = test system: HT-29
T47D = test system: T47D
786-0 = test system: 786-0
OVCAR-3 = test system: OVCAR-3
SF-268 = test system: SF-268
A498 = test system: A498
RXF 393 = test system: RXF 393

**Q.** What does the source list for `O=C(O)CN(CC(=O)O)Cc1cc2c(cc1O)Oc1cc(O)c(CN(CC(=O)O)CC(=O)O)cc1C21OC(=O)c2ccccc21` [OFTASCEINE]?
**A.** GI50 (IGROV-1): > 100 µM (inactive); GI50 (KM12): > 100 µM (inactive); GI50 (SNB-19): > 100 µM (inactive); GI50 (SK-OV-3): > 100 µM (inactive); GI50 (OVCAR-4): > 100 µM (inactive); GI50 (NCI-H522): > 100 µM (inactive); GI50 (HCT-15): > 100 µM; GI50 (NCI-H23): > 100 µM (inactive); GI50 (HOP-62): > 100 µM (inactive); GI50 (U-251): > 100 µM (inactive); GI50 (SNB-75): > 100 µM (inactive); GI50 (SR): > 100 µM (inactive); GI50 (UACC-257): > 100 µM (inactive); GI50 (UO-31): > 100 µM (inactive); GI50 (HOP-92): > 100 µM (inactive); GI50 (HCC 2998): > 100 µM (inactive); GI50 (UACC-62): > 100 µM (inactive); GI50 (MDA-MB-231): > 100 µM (inactive); GI50 (RPMI-8226): > 100 µM (inactive); GI50 (SF-295): > 100 µM (inactive); GI50 (OVCAR-5): > 100 µM (inactive); GI50 (MDA-N): > 100 µM (inactive); GI50 (OVCAR-8): > 100 µM (inactive); GI50 (DU-145): > 100 µM (inactive); GI50 (COLO 205): > 100 µM (inactive); GI50 (EKVX): > 100 µM (inactive); GI50 (SW-620): > 100 µM (inactive); GI50 (LOX IMVI): > 100 µM (inactive); GI50 (CAKI-1): > 100 µM (inactive); GI50 (MOLT-4): > 100 µM (inactive); GI50 (A549): > 100 µM (inactive); GI50 (ACHN): > 100 µM (inactive); GI50 (CCRF-CEM): > 100 µM (inactive); GI50 (M14): > 100 µM (inactive); GI50 (SF-539): > 100 µM (inactive); GI50 (TK-10): > 100 µM (inactive); GI50 (NCI-H226): > 100 µM (inactive); GI50 (SK-MEL-2): > 100 µM (inactive); GI50 (MCF7): > 100 µM (inactive); GI50 (SK-MEL-28): > 100 µM (inactive); GI50 (NCI/ADR-RES): > 100 µM (inactive); GI50 (Hs-578T): > 100 µM (inactive); GI50 (HL-60): > 100 µM (inactive); GI50 (SN12C): > 100 µM (inactive); GI50 (MDA-MB-435): > 100 µM (inactive); GI50 (NCI-H460): > 10 µM (inactive); GI50 (K562): > 100 µM (inactive); GI50 (BT-549): > 100 µM (inactive); GI50 (HCT-116): > 100 µM (inactive); GI50 (PC-3): > 100 µM (inactive); GI50 (SK-MEL-5): > 100 µM (inactive); GI50 (HT-29): > 100 µM (inactive); GI50 (T47D): > 100 µM (inactive); GI50 (786-0): > 100 µM (inactive); GI50 (OVCAR-3): > 100 µM (inactive); GI50 (SF-268): > 100 µM (inactive); GI50 (A498): > 100 µM (inactive)

**Q.** How did the GI50 (IGROV-1) turn out when `C=C(C)[C@H]1C=C[C@@H](OC(=O)c2cccnc2)[C@@]23CO[C@@](C)([C@H](OC(=O)c4cccnc4)[C@@]4(OC(C)=O)C[C@H](C)[C@H](OCCC)[C@@H]4[C@H]2OC(C)=O)[C@H]13` was run?
**A.** > 15 µM (inactive)

**Q.** And the GI50 (KM12)?
**A.** > 15 µM (inactive)

**Q.** What about the GI50 (SNB-19) of the same compound?
**A.** > 15 µM (inactive)

**Q.** And the GI50 (SK-OV-3)?
**A.** > 15 µM (inactive)

**Q.** And the GI50 (OVCAR-4)?
**A.** 10.3 µM (inactive)

**Q.** What about the GI50 (NCI-H522) of the same compound?
**A.** > 15 µM (inactive)

**Q.** And the GI50 (RXF 393)?
**A.** > 15 µM (inactive)

**Q.** And the GI50 (HCT-15)?
**A.** > 15 µM

**Q.** What about the GI50 (NCI-H23) of the same compound?
**A.** > 15 µM (inactive)

**Q.** What about the GI50 (HOP-62) of the same compound?
**A.** 10.9 µM (inactive)

**Q.** What about the GI50 (U-251) of the same compound?
**A.** > 15 µM (inactive)

**Q.** And the GI50 (SNB-75)?
**A.** 3.82 µM (inactive)

**Q.** And the GI50 (SR)?
**A.** 11.9 µM (inactive)

**Q.** And the GI50 (UACC-257)?
**A.** > 15 µM (inactive)

**Q.** And the GI50 (UO-31)?
**A.** > 15 µM (inactive)

**Q.** What about the GI50 (HOP-92) of the same compound?
**A.** > 15 µM (inactive)

**Q.** What about the GI50 (HCC 2998) of the same compound?
**A.** > 15 µM (inactive)

**Q.** What about the GI50 (UACC-62) of the same compound?
**A.** > 15 µM (inactive)

**Q.** And the GI50 (MDA-MB-231)?
**A.** > 15 µM (inactive)

**Q.** And the GI50 (RPMI-8226)?
**A.** 9.95 µM (inactive)

**Q.** What about the GI50 (SF-295) of the same compound?
**A.** 13.4 µM (inactive)

**Q.** And the GI50 (OVCAR-5)?
**A.** > 15 µM (inactive)

**Q.** And the GI50 (MDA-N)?
**A.** 10.7 µM (inactive)

**Q.** What about the GI50 (OVCAR-8) of the same compound?
**A.** > 15 µM (inactive)

**Q.** What about the GI50 (DU-145) of the same compound?
**A.** > 15 µM (inactive)

**Q.** What about the GI50 (COLO 205) of the same compound?
**A.** 8.09 µM (inactive)

**Q.** And the GI50 (EKVX)?
**A.** > 15 µM (inactive)

**Q.** What about the GI50 (SW-620) of the same compound?
**A.** > 15 µM (inactive)

**Q.** And the GI50 (LOX IMVI)?
**A.** > 15 µM (inactive)

**Q.** What about the GI50 (CAKI-1) of the same compound?
**A.** > 15 µM (inactive)

**Q.** And the GI50 (MOLT-4)?
**A.** 7.1 µM (inactive)

**Q.** What about the GI50 (ACHN) of the same compound?
**A.** > 15 µM (inactive)

**Q.** What about the GI50 (CCRF-CEM) of the same compound?
**A.** 2.84 µM (inactive)

**Q.** What about the GI50 (M14) of the same compound?
**A.** 12.7 µM (inactive)

**Q.** And the GI50 (SF-539)?
**A.** > 15 µM (inactive)

**Q.** And the GI50 (TK-10)?
**A.** > 15 µM (inactive)

**Q.** And the GI50 (NCI-H226)?
**A.** > 15 µM (inactive)

**Q.** What about the GI50 (SK-MEL-2) of the same compound?
**A.** > 15 µM (inactive)

**Q.** And the GI50 (MCF7)?
**A.** > 15 µM (inactive)

**Q.** And the GI50 (NCI/ADR-RES)?
**A.** > 15 µM (inactive)

**Q.** And the GI50 (Hs-578T)?
**A.** 13.5 µM (inactive)

**Q.** And the GI50 (HL-60)?
**A.** 3.35 µM (inactive)

**Q.** And the GI50 (SN12C)?
**A.** > 15 µM (inactive)

**Q.** What about the GI50 (MDA-MB-435) of the same compound?
**A.** 9.68 µM (inactive)

**Q.** And the GI50 (NCI-H460)?
**A.** 4.94 µM (inactive)

**Q.** What about the GI50 (K562) of the same compound?
**A.** 7.73 µM (inactive)

**Q.** What about the GI50 (BT-549) of the same compound?
**A.** > 15 µM (inactive)

**Q.** And the GI50 (HCT-116)?
**A.** > 15 µM (inactive)

**Q.** And the GI50 (PC-3)?
**A.** 7.74 µM (inactive)

**Q.** And the GI50 (SK-MEL-5)?
**A.** > 15 µM (inactive)

**Q.** And the GI50 (T47D)?
**A.** > 15 µM (inactive)

**Q.** And the GI50 (786-0)?
**A.** > 15 µM (inactive)

**Q.** And the GI50 (OVCAR-3)?
**A.** > 15 µM (inactive)

**Q.** And the GI50 (SF-268)?
**A.** > 15 µM (inactive)

**Q.** And the GI50 (A498)?
**A.** > 15 µM (inactive)

— ChEMBL document CHEMBL1201862, “PubChem BioAssay data set” (2004)
